Results as given in patent publication EP0156772A2, “Novel pharmaceutical use for CGRPs” (SANDOZ AG, priority 1984, dated 1985).

How the values were obtained:
[1] = Clinical trial A: human CGRP in active Paget's disease, serum parameters prior and post administration; type: in vivo, volunteer subjects (male and female)
Procedure: Human CGRP is employed as trial substance and is tested by administration in accordance with the following regimens.
The following parameters are measured prior and post-administration: circulating calcium serum levels: alkaline phosphatase: hydroxyproline: bone specific protein levels.

[2] = Continuous on-line measurement of free calcium concentrations in the extra-corporeal blood circulation; type: in vivo, young rabbits; settings: for calcaemic response: rat CGRP i.v.
Procedure: • The general scheme for this test is represented in figure 1 attached: • A flow-through electrode system with two Ca2+^-selective liquid membrane electrodes is inserted in the arterio-venous extracor- poreal blood circulatory system of the test animal this being established by means of indwelling catheters connecting the femoral artery with femoral vein.
The blood is pumped from the artery to the vein at a flow rate of 18 ml/h through the system containing Ca2+^-selective electrodes. A second peristaltic pump aspirates the reference solution of electrolytes, which is transported at a flow rate of 0.9 ml/h, passing the compartment of the reference electrode and mixed with the circulating blood at the site of the common electrode. The mixed fluids are then returned into the ciculatory system of the animal.
The Ca2+^-selective electrode allows the potentiometric measurement of the ionized calcium quantitatively. The potential difference between the reference electrode and the Ca2+^-selective electrode is measured differentially relative to the common electrode. The analogue signal of the difference amplifier is processed by a digital voltmeter. Results are obtained in mV and are continously recorded as a function of time. The voltage difference is […].
Following administration of CGRPs i.v. to the test animal, a potent influence on Ca2+ concentration over extended periods of time and up to at least 5 hours is observed at dosages of from about 0.1 to about 25 µg/kg. More importantly results observed indicate that CGRPs exert both a hypo- and hyper-calcaemic effect which is both dose- and time-dependent. […] Specific results obtained following Ix administration of rat CGRP at varying dosages and illustrating activity profile are shown in the accompanying Figs. 2 through 5. • In all cases administration of test substance occurs at time • Fig.2 .: This is a plot for observed change in calcium level [Δ% calcaemia] with time, following i.v. administration of rat CGRP at dosages of from 0.156 µg/kg to 5.0 µg/kg.

[3] = Clinical trial B: human CGRP s.c. accompanied by salmon or human calcitonin; type: in vivo, volunteer subjects (male and female); settings: human CGRP s.c. 10 to 200 µg accompanied by salmon or human calcitonin 5 to 100 I.U. (or M.R.C) s.c. or i.m.
Description: The methodology of clinical trial A is repeated, with administration of human CGRP in accordance with regimen 1.3. In this trial however administration is accompanied by administration of salmon or human calcitonin at dosages of from 5 to 100 I.U. (or M.R.C), [e.g. at dosages of 5, 10, 25, 50 or 100 I.U. (or M.R.C.)] administered by injection either s.c. or i.m.

Compound	circulating serum calcium levels ([1]; i.v. 0.1 to 20 µg, i.v. infusion 10 to 100 µg, s.c. 10 to 200 µg, intranasal 10 to 500 µg, or s.c. daily for 5 to 7 days)	alkaline phosphatase levels ([1]; same regimens)	hydroxyproline levels ([1]; same regimens)	bone specific proteins ([1]; same regimens, in particular proteins reflecting bone metabolic turn over)	observed change in calcium level, course of response ([2]; Fig. 6, i.v., 2.5 µg/kg, groups of 6 animals)	influence on measured serum parameters [3]	reduction of circulating serum calcium levels ([3]; compared with salmon calcitonin alone)	AUCS (areas under curve) ([2]; Fig. 2, i.v., 0.156 µg/kg to 5.0 µg/kg, calcium level versus time)	observed change in calcium level [Δ% calcaemia] ([2]; Fig. 2, i.v., dosages of from 0.156 µg/kg to 5.0 µg/kg)	observed change in calcium level after the initial hypocalcaemic response ([2]; Fig. 5, 10 pg/kg i.v.)	hypocalcaemic response ([2]; Fig. 5, 10 pg/kg i.v., compared with untreated control)	duration of hypercalcaemic response following initial administration ([2]; Fig. 5, 10 pg/kg i.v., printed 'up to at least 5 hours')	observed change in calcium level ([2]; Figs 3 to 4, i.v., 2.5 and 5.0 µg/kg, groups of four test animals, compared with untreated controls)	calcaemic response [2]	calcaemic response ([2]; dosages in excess of 5 µg/kg)
CC(C)C[C@H](NC(=O)CNC(=O)[C@H](C)NC(=O)[C@H](CC(C)C)NC(=O)[C@H](CCCNC(=N)N)NC(=O)[C@H](Cc1c[nH]cn1)NC(=O)[C@@H](NC(=O)[C@@H](NC(=O)[C@@H]1CSSC[C@H](NC(=O)[C@H](C)N)C(=O)N[C@@H](CC(=O)O)C(=O)N[C@@H]([C@@H](C)O)C(=O)N[C@@H](C)C(=O)N[C@@H]([C@@H](C)O)C(=O)N1)C(C)C)[C@@H](C)O)C(=O)N[C@@H](CC(C)C)C(=O)N[C@@H](CO)C(=O)N[C@@H](CCCNC(=N)N)C(=O)N[C@@H](CO)C(=O)NCC(=O)NCC(=O)N[C@H](C(=O)N[C@H](C(=O)N[C@@H](CCCCN)C(=O)N[C@@H](CC(N)=O)C(=O)N[C@@H](CC(N)=O)C(=O)N[C@@H](Cc1ccccc1)C(=O)N[C@H](C(=O)N1CCC[C@H]1C(=O)N[C@H](C(=O)N[C@@H](CC(N)=O)C(=O)N[C@H](C(=O)NCC(=O)N[C@@H](CO)C(=O)N[C@@H](CCCCN)C(=O)N[C@@H](C)C(=O)N[C@@H](Cc1ccccc1)C(N)=O)C(C)C)[C@@H](C)O)C(C)C)C(C)C)C(C)C [human CGRP]	significant reduction	concomitant reduction	concomitant reduction	marked reduction	parallels that recorded for rat CGRP in Fig. 5	observed in this trial as in trial A	superior to that observed on administration of salmon calcitonin alone	–	–	–	–	–	–	–	–
CC(C)C[C@H](NC(=O)CNC(=O)[C@H](C)NC(=O)[C@H](CC(C)C)NC(=O)[C@H](CCCNC(=N)N)NC(=O)[C@H](Cc1c[nH]cn1)NC(=O)[C@@H](NC(=O)[C@@H](NC(=O)[C@@H]1CSSC[C@H](NC(=O)[C@@H](N)CO)C(=O)N[C@@H](CC(N)=O)C(=O)N[C@@H]([C@@H](C)O)C(=O)N[C@@H](C)C(=O)N[C@@H]([C@@H](C)O)C(=O)N1)C(C)C)[C@@H](C)O)C(=O)N[C@@H](CC(C)C)C(=O)N[C@@H](CO)C(=O)N[C@@H](CCCNC(=N)N)C(=O)N[C@@H](CO)C(=O)NCC(=O)NCC(=O)N[C@H](C(=O)N[C@H](C(=O)N[C@@H](CCCCN)C(=O)N[C@@H](CC(=O)O)C(=O)N[C@@H](CC(N)=O)C(=O)N[C@@H](Cc1ccccc1)C(=O)N[C@H](C(=O)N1CCC[C@H]1C(=O)N[C@H](C(=O)N[C@@H](CC(N)=O)C(=O)N[C@H](C(=O)NCC(=O)N[C@@H](CO)C(=O)N[C@@H](CCC(=O)O)C(=O)N[C@@H](C)C(=O)N[C@@H](Cc1ccccc1)C(N)=O)C(C)C)[C@@H](C)O)C(C)C)C(C)C)C(C)C [rat CGRP]	–	–	–	–	–	–	–	statistically linear	decrease (hypocalcaemia)	reverse hypercalcaemic response which continues very strongly	though strongly marked, is transitory only	at least 5 hours	hypocalcaemia is again observed	primarily hypo- calcaemic response	primarily hyper-calcaemic response preceeded by a transient hypo-calcaemic response at the lower end of the dosage range
